Experimental data as given in ChEMBL document CHEMBL4680163, “Discovery of potent epidermal growth factor receptor (EGFR) degraders by proteolysis targeting chimera (PROTAC)” (Eur J Med Chem, 2020).
Activity calls are given as the source filed them. The rule behind the calls is not given here.

Key:
[1] = test system: HCC827; assay: Induction of cell cycle arrest in human HCC827 cells assessed as accumulation in G1 phase at 1 uM incubated for 32 hrs by PI staining based flow cytometry analysis (reference value: 50.48 %); format: functional
[2] = test system: HCC827; assay: Antiproliferative activity against human HCC827 cells harboring EGFRDel19 mutant assessed as reduction in cell viability incubated for 72 hrs by MTT assay; format: functional, cell-based; settings: HCC827, 72 h
[3] = test system: NCI-H1975; assay: Antiproliferative activity against human NCI-H1975 cells harboring EGFR L858/T790M mutant assessed as reduction in cell viability incubated for 72 hrs by MTT assay; format: functional, cell-based; settings: NCI-H1975, 72 h
[4] = test system: A549; assay: Antiproliferative activity against human A549 cells harboring EGFR assessed as reduction in cell viability incubated for 72 hrs by MTT assay; format: functional, cell-based; settings: A549, 72 h
[5] = test system: A-431; assay: Antiproliferative activity against human A-431 cells harboring EGFR assessed as reduction in cell viability incubated for 72 hrs by MTT assay; format: functional, cell-based; settings: A-431, 72 h
[6] = (§1) Protac activity at E3 ubiquitin ligase/EGFR in human HCC827 cells assessed as increase in degradation of EGFR incubated for 48 hrs by Western blot analysis; format: cell-based; settings: HCC827, 48 h
[7] = test system: HCC827; assay: as §1; format: cell-based
[8] = test system: HCC827; assay: Protac activity at E3 ubiquitin ligase/EGFR in human HCC827 cells assessed as increase in degradation of EGFR measured upto 96 hrs by Western blot analysis; format: cell-based; settings: time hrs <=96, TDE = time-dependent effect
[9] = test system: HCC827; assay: Protac activity at E3 ubiquitin ligase/EGFR in human HCC827 cells assessed as increase in degradation of EGFR at 100 nM incubated for 72 hrs by Western blot analysis relative to control; format: cell-based
[10] = target: Epidermal growth factor receptor (Homo sapiens) (UniProt P00533); assay: Inhibition of EGFR in human HCC827 cells assessed as reduction in EGFR phosphorylation incubated for 36 hrs by Western blot analysis; format: cell-based; settings: dose 0.1-1 µM
[11] = test system: HCC827; assay: Protac activity at E3 ubiquitin ligase/EGFR in human HCC827 cells assessed as increase in degradation of EGFR at 0.1 uM pretreated with (1-(6-(5-(4-(dimethylamino)piperidin-1-yl)pyridin-2-ylamino)-2-(4-fluorophenylamino)pyrido[3,4-d]pyrimidin-4-yl)piperidin-4-yl)methanol and incubated for 6 hrs followed by compound addition and measured after 32 hrs by Western blot analysis; format: cell-based
[12] = test system: HCC827; assay: Protac activity at E3 ubiquitin ligase/EGFR in human HCC827 cells assessed as increase in degradation of EGFR at 100 nM pretreated with VHL-L for 5 hrs followed by compound addition and measured after 32 hrs by Western blot analysis; format: cell-based
[13] = test system: HCC827; assay: Protac activity at E3 ubiquitin ligase/EGFR in human HCC827 cells assessed as increase in degradation of EGFR at 1 to 10 uM pretreated with MG-132 for 6 hrs followed by compound addition and measured after 30 hrs by Western blot analysis; format: cell-based; settings: dose 1-10 µM
[14] = test system: HCC827; assay: Protac activity at E3 ubiquitin ligase/EGFR in human HCC827 cells assessed as increase in degradation of EGFR at 1 to 10 uM pretreated with MLN-4924 for 6 hrs followed by compound addition and measured after 30 hrs by Western blot analysis; format: cell-based; settings: dose 1-10 µM
[15] = test system: NCI-H1975; assay: Protac activity at E3 ubiquitin ligase/EGFR in human NCI-H1975 cells harboring EGFR T790M mutant assessed as increase in degradation of EGFR at 0.1 to 10 uM incubated for 48 hrs by Western blot analysis; format: cell-based; settings: dose 0.1-10 µM
[16] = test system: A549; assay: Protac activity at E3 ubiquitin ligase/EGFR in human A549 cells harboring wild type EGFR assessed as increase in degradation of EGFR at 0.1 to 10 uM incubated for 48 hrs by Western blot analysis; format: cell-based; settings: dose 0.1-10 µM
[17] = test system: HCC827; assay: Induction of apoptosis in human HCC827 cells assessed as viable cells at 0.1 uM incubated for 32 hrs by annexin V-FITC and PI staining based flow cytometry analysis (reference value: 76.79 %); format: functional; settings: read-out: Activity
[18] = test system: HCC827; assay: Induction of apoptosis in human HCC827 cells assessed as early apoptotic cells at 0.1 uM incubated for 32 hrs by annexin V-FITC and PI staining based flow cytometry analysis (reference value: 2.31 %); format: functional
[19] = test system: HCC827; assay: Induction of apoptosis in human HCC827 cells assessed as late apoptotic cells at 0.1 uM incubated for 32 hrs by annexin V-FITC and PI staining based flow cytometry analysis (reference value: 14.23 %); format: functional
[20] = test system: HCC827; assay: Induction of apoptosis in human HCC827 cells assessed as necrotic cells at 0.1 uM incubated for 32 hrs by annexin V-FITC and PI staining based flow cytometry analysis (reference value: 6.68 %); format: functional
[21] = test system: HCC827; assay: Induction of apoptosis in human HCC827 cells assessed as viable cells at 1 uM incubated for 32 hrs by annexin V-FITC and PI staining based flow cytometry analysis (reference value: 72.15 %); format: functional; settings: read-out: Activity
[22] = test system: HCC827; assay: Induction of apoptosis in human HCC827 cells assessed as early apoptotic cells at 1 uM incubated for 32 hrs by annexin V-FITC and PI staining based flow cytometry analysis (reference value: 2.72%); format: functional
[23] = test system: HCC827; assay: Induction of apoptosis in human HCC827 cells assessed as late apoptotic cells at 1 uM incubated for 32 hrs by annexin V-FITC and PI staining based flow cytometry analysis (reference value: 18.02%); format: functional
[24] = test system: HCC827; assay: Induction of apoptosis in human HCC827 cells assessed as necrotic cells at 1 uM incubated for 32 hrs by annexin V-FITC and PI staining based flow cytometry analysis (reference value: 7.12 %); format: functional
[25] = test system: HCC827; assay: Induction of cell cycle arrest in human HCC827 cells assessed as accumulation in G1 phase at 0.1 uM incubated for 32 hrs by PI staining based flow cytometry analysis (reference value: 50.48 %); format: functional
[26] = test system: HCC827; assay: Induction of cell cycle arrest in human HCC827 cells assessed as accumulation in G2 phase at 0.1 uM incubated for 32 hrs by PI staining based flow cytometry analysis (reference value: 8.25 %); format: functional
[27] = test system: HCC827; assay: Induction of cell cycle arrest in human HCC827 cells assessed as accumulation in S phase at 0.1 uM incubated for 32 hrs by PI staining based flow cytometry analysis (reference value: 41.26 %); format: functional
[28] = test system: HCC827; assay: Induction of cell cycle arrest in human HCC827 cells assessed as accumulation in G2 phase at 1 uM incubated for 32 hrs by PI staining based flow cytometry analysis (reference value: 8.25 %); format: functional
[29] = test system: HCC827; assay: Induction of cell cycle arrest in human HCC827 cells assessed as accumulation in S phase at 1 uM incubated for 32 hrs by PI staining based flow cytometry analysis (reference value: 41.26 %); format: functional
[30] = test system: HCC827; assay: Protac activity at E3 ubiquitin ligase/EGFR in human HCC827 cells assessed as increase in degradation of EGFR at 100 nM incubated for 96 hrs by Western blot analysis relative to control; format: cell-based
[31] = test system: HCC827; assay: Protac activity at E3 ubiquitin ligase/EGFR in human HCC827 cells assessed as increase in degradation of EGFR at 100 nM pretreated with lenalidomide for 2 hrs followed by compound addition and measured after 48 hrs by Western blot analysis; format: cell-based

Epidermal growth factor receptor (Homo sapiens), sequence (P00533 whole entry): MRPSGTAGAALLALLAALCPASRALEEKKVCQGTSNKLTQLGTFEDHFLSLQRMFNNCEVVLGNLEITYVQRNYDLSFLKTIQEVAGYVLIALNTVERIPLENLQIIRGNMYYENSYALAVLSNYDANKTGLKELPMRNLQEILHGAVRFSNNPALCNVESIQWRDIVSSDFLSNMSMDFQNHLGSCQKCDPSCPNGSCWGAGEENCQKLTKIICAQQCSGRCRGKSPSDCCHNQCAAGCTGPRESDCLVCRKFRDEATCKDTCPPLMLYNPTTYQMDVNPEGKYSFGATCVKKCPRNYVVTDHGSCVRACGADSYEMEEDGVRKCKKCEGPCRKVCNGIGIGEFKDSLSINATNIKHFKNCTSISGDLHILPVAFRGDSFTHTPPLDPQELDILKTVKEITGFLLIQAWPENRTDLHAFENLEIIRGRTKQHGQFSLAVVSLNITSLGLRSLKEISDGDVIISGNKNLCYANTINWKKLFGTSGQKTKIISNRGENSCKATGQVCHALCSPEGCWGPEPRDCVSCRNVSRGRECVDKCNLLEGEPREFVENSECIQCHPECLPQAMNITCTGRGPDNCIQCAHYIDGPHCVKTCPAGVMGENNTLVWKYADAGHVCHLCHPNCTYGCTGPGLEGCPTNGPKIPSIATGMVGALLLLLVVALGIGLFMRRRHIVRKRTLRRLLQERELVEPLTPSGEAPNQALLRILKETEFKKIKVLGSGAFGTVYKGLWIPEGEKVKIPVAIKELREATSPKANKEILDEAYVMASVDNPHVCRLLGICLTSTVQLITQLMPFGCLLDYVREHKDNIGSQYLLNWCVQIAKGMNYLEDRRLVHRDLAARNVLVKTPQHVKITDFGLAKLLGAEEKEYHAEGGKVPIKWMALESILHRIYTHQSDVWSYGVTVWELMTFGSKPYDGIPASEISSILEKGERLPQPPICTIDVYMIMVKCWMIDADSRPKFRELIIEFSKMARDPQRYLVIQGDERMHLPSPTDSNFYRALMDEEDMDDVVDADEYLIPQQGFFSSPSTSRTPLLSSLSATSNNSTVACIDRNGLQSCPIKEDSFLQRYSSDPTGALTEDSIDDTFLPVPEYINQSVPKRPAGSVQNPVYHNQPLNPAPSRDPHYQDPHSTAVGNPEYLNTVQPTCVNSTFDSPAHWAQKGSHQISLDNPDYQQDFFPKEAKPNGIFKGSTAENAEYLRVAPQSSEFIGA

Row | SMILES | Activity [1] [%] | IC50 [2] [nM] | IC50 [3] [nM] | IC50 [4] [nM] | IC50 [5] [nM] | DC50 [6] [nM] | Activity [7] | Activity [8] | inhibition [10] | Activity [11] | Activity [13] | Activity [14] | Activity [15] | Activity [16] | viability at 0.1 µM [17] [%] | Activity [18] [%] | Activity [19] [%] | Activity [20] [%] | viability at 1 µM [21] [%] | Activity [22] [%] | further results
1 | Cc1ncsc1-c1ccc(CNC(=O)[C@@H]2C[C@@H](O)CN2C(=O)[C@@H](NC(=O)CCCCCCN2CCN(c3ccc(Nc4cc5c(N6CCC(CO)CC6)nc(Nc6ccc(F)cc6)nc5cn4)nc3)CC2)C(C)(C)C)cc1 | 83.15 | 220 | > 10000 | > 10000 | > 10000 | 34.8 | Dose-dependent effect | Tde | Dose-dependent effect | inactive | inactive | Active | Active | Active | 59.7 | 7.95 | 25.73 | 6.62 | 22.4 | 4.36 | Emax [9]: 98%; Activity [12]: inactive; Activity [23]: 63.29%; Activity [24]: 9.9%; Activity [25]: 81.94%; Activity [26]: 6.39%; Activity [27]: 11.67%; Activity [28]: 8.86%; Activity [29]: 7.99%
2 | O=C1CCC(N2Cc3c(NC(=O)CCCCCCCN4CCN(c5ccc(Nc6cc7c(N8CCC(CO)CC8)nc(Nc8ccc(F)cc8)nc7cn6)nc5)CC4)cccc3C2=O)C(=O)N1 (stereo not drawn) | 81.89 | 180 | > 10000 | > 10000 | > 10000 | 45.2 | Dose-dependent effect | Tde | Dose-dependent effect | inactive | inactive | Active | Active | Active | 59.5 | 5.93 | 26.38 | 8.21 | 35.5 | 4.16 | Emax [30]: 87%; Activity [31]: inactive; Activity [23]: 49.56%; Activity [24]: 9.74%; Activity [25]: 82.95%; Activity [26]: 6.26%; Activity [27]: 10.79%; Activity [28]: 7.47%; Activity [29]: 10.63%
